# Measurements published in patent US12180226B2, “Spirotricycle RIPK1 inhibitors and methods of uses thereof” (Merck Sharp & Dohme LLC, priority 2021, dated 2024).
# Counter-ions that a name gives are not always drawn.
# Molecular target: RIPK1 (recombinant GST-RIPK1 kinase domain, residues 1-327) (Homo sapiens (Human), UniProt Q13546)
# Test: RIPK1-ADP-Glo Enzymatic Assay
# Format: biochemical
# Details: ADP-Glo; 25 nM GST-RIPK1, 300 μM ATP; assay lower limit ~25 nM; read-out: RIPK1 V0 Ec50
# Outline: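 Luminescent ADP-Glo readout of ATP-to-ADP conversion. Conditions: 25 nM enzyme, 300 μM ATP, 3 μM dephospho-MBP, pH 7.3 HEPES buffer with 20 mM MgCl2; 30 min compound pre-incubation, 150 min reaction. EC50 via four-parameter sigmoidal regression; assay floor ~25 nM.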
# RIPK1 (recombinant GST-RIPK1 kinase domain, residues 1-327), sequence (Q13546 1-327): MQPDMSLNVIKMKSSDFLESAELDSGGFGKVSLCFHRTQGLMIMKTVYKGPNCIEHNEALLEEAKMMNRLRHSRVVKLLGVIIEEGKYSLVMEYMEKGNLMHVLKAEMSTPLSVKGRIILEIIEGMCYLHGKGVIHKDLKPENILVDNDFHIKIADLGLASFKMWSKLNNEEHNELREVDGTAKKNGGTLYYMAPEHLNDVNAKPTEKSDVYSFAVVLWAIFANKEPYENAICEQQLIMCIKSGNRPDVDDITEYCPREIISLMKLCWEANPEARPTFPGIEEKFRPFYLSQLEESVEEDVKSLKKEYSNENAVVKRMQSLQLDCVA
row,SMILES,EC50 [µM]
1,"O=C(c1ccccc1)N1CCC2(CC1)S[C@@H]1CC[C@@H](c3ccccc3)N1C2=O [Example 1.23, (5′S,7a′R)-1-(benzenecarbonyl)-5′-phenyltetrahydro-3′H-spiro[piperidine-4,2′-pyrrolo[2,1-b] [1,3]thiazol]-3′-one]",0.0261
2,"O=C1N2[C@@H](CC[C@H]2c2ccccc2)OC12CCN(c1cc(C3CC3)ccn1)CC2 [Example 11.22, (5′S,7a′R)-1-(4-cyclopropylpyridin-2-yl)-5′-phenyltetrahydro-3′H-spiro[piperidine-4,2′-pyrrolo[2,1-b][1,3]oxazol]-3′-one]",0.761
3,"O=C(c1cccc(N2CCOCC2)c1)N1CCC2(CC1)O[C@@H]1CC[C@@H](c3cc(F)cc(F)c3)N1C2=O [Example 6.47, (5′S,7a′R)-5′-(3,5-difluorophenyl)-1-[3-(morpholin-4-yl)-benzene-1-carbonyl]-tetrahydro-3′H-spiro [piperidine-4,2′-pyrrolo[2,1-b][1,3]oxazol]-3′-one]",< 0.025
4,"O=C1N2[C@@H](CC[C@H]2c2cccc(F)c2)OC12CCN(c1cc(C(F)F)ncn1)CC2 [Example 4.52, (5′S,7a′R)-1-[6-(difluoromethyl)pyrimidin-4-yl]-5′-(3-fluorophenyl)tetrahydro-3′H-spiro[piperidine-4,2′-pyrrolo[2,1-b] [1,3]oxazol]-3′-one]",0.069
5,"O=C1N2[C@@H](CC[C@H]2c2cc(F)cc(F)c2)OC12CCN(c1nccn3cccc13)CC2 [Example 13.10, (5′S,7a′R)-5′-(3,5-difluorophenyl)-1-(pyrrolo[1,2-a]pyrazin-1-yl)tetrahydro-3′H-spiro[piperidine-4,2′-pyrrolo[2,1-b]oxazol]-3′-one]",0.0368
6,"Cc1cccc(CN2CCC3(CC2)O[C@@H]2CC[C@@H](c4cc(F)cc(F)c4)N2C3=O)c1 [Example 22.4, (5′S,7a′R)-5′-(3,5-difluorophenyl)-1-[(3-methylphenyl)methyl] tetrahydro-3′H-spiro[piperidine-4,2′-pyrrolo[2,1-b][1,3]oxazol]-3′-one]",0.701
7,"Cn1cc([C@@H]2CC[C@H]3OC4(CCN(c5ccc(C#N)c6ncnn56)CC4)C(=O)N32)cn1 [Example 20.1, 5-((5′S,7a′R)-5′-(1-Methyl-1H-pyrazol-4-yl)-3′-oxotetrahydro-3′H-spiro[piperidine-4,2′-pyrrolo[2,1-b]oxazol]-1-yl)-[1,2,4]triazolo[1,5-a]pyridine-8-carbonitrile]",0.0454
8,"O=C1N2[C@@H](CC[C@H]2c2cc(F)ccc2F)OC12CCN(c1ccnc3ccnn13)CC2 [Example 4.114, (5′S,7a′R)-5′-(2,5-difluorophenyl)-1-(pyrazolo[1,5-a]pyrimidin-7-yl)tetrahydro-3′H-spiro[piperidine-4,2′-pyrrolo[2,1-b] [1,3]oxazol]-3′-one]",< 0.025
9,"O=C(c1cccc(O)c1)N1CCC2(CC1)O[C@@H]1CC[C@@H](c3cc(F)cc(F)c3)N1C2=O [Example 5.63, (5′S,7a′R)-5′-(3,5-difluoro-phenyl)-1-(3-hydroxy-benzoyl)tetrahydro-3′H-spiro[piperidine-4,2′-pyrrolo[2,1-b]oxazol]-3′-one]",< 0.025
10,"O=C1N2[C@@H](CC[C@H]2c2ccccc2)OC12CCN(c1nc3cnccc3o1)CC2 [Example 4.159, (5′S,7a′R)-1-([1,3]oxazolo[4,5-c]pyridin-2-yl)-5′-phenyltetrahydro-3′H-spiro[piperidine-4,2′-pyrrolo[2,1-b] [1,3]oxazol]-3′-one]",0.0626
11,"O=C(c1cnsc1)N1CCC2(CC1)O[C@@H]1CC[C@@H](c3cc(F)cc(F)c3)N1C2=O [Example 5.51, (5′S,7a′R)-5′-(3,5-difluoro-phenyl)-1-(isothiazole-4-carbonyl)tetrahydro-3′H-spiro[piperidine-4,2′-pyrrolo[2,1-b]oxazol]-3′-one]",0.0483
12,"O=C1N2[C@@H](CC[C@H]2c2cc(F)cc(F)c2)OC12CCN(c1nccn3ccnc13)CC2 [Example 13.15, (5′S,7a′R)-5′-(3,5-difluorophenyl)-1-(imidazo[1,2-a]pyrazin-8-yl)tetrahydro-3′H-spiro[piperidine-4,2′-pyrrolo[2,1-b]oxazol]-3′-one, TFA salt]",0.188
13,"CCOC(=O)c1coc(-c2ccnc(N3CCC4(CC3)O[C@@H]3CC[C@@H](c5ccccc5)N3C4=O)c2)n1 [Example 4.173, ethyl 2-{2-[(5′S,7a′R)-3′-oxo-5′-phenyltetrahydro-1H,3′H-spiro[piperidine-4,2′-pyrrolo[2,1-b] [1,3]oxazol]-1-yl]pyridin-4-yl}-1,3-oxazole-4-carboxylate]",0.0692
14,"O=C(c1ccccc1)N1CCC2(CC1)O[C@@H]1CC[C@@H](c3ccc4sccc4c3)N1C2=O [Example 17.2, (5′S,7a′R)-5′-(benzo[b]thiophen-5-yl)-1-benzoyltetrahydro-3′H-spiro[piperidine-4,2′-pyrrolo[2,1-b]oxazol]-3′-one]",0.0261
15,"Cc1c(Cl)ncnc1N1CCC2(CC1)O[C@@H]1CC[C@@H](c3ccccc3)N1C2=O [Example 4.30, (5′S,7a′R)-1-(6-chloro-5-methylpyrimidin-4-yl)-5′-phenyltetrahydro-3′H-spiro[piperidine-4,2′-pyrrolo[2,1-b] [1,3]oxazol]-3′-one]",< 0.025
16,"O=C(c1ccccn1)N1CCC2(CC1)O[C@@H]1CC[C@@H](c3cc(F)cc(F)c3)N1C2=O [Example 6.101, (5′S,7a′R)-5′-(3,5-difluorophenyl)-1-(pyridine-2-carbonyl) tetrahydro-3′H-spiro [piperidine-4,2′-pyrrolo[2,1-b][1,3]-oxazol]-3′-one]",0.0569
17,"O=C1N2[C@@H](CC[C@H]2c2ccccc2)OC12CCN(c1ccc(C3CC3)cn1)CC2 [Example 11.19, (5′S,7a′R)-1-(5-cyclopropylpyridin-2-yl)-5′-phenyltetrahydro-3′H-spiro[piperidine-4,2′-pyrrolo[2,1-b][1,3]oxazol]-3′-one]",0.624
18,"COc1cc(C(=O)N2CCC3(CC2)O[C@@H]2CC[C@@H](c4ccccc4)N2C3=O)ccc1F [Example 6.158, (5′S,7a′R)-1-(4-fluoro-3-methoxybenzene-1-carbonyl)-5′-phenyl-tetrahydro-3′H-spiro [piperidine-4,2′-pyrrolo[2,1-b][1,3]oxazol]-3′-one]",< 0.025
19,"N#Cc1cccc(C(=O)N2CCC3(CC2)O[C@@H]2CC[C@@H](c4ccccc4)N2C3=O)c1F [Example 6.140, 2-fluoro-3-[(5′S,7a′R)-3′-oxo-5′-phenyltetra-hydro-1H,3′H-spiro [piperidine-4,2′-pyrrolo[2,1-b][1,3]oxazole]-1-carbonyl] benzonitrile]",0.0471
20,"N#Cc1cccc(C(=O)N2CCC3(CC2)O[C@@H]2CC[C@@H](c4cc(F)cc(F)c4)N2C3=O)c1F [Example 6.33, 3-[(5′S,7a′R)-5′-(3,5-difluorophenyl)-3′-oxotetrahydro-1H,3′H-spiro[piperidine-4,2′-pyrrolo[2,1-b][1,3]oxazole]-1-carbonyl]-2-fluorobenzonitrile]",0.0402
21,"N#Cc1ccc(N2CCC3(CC2)O[C@@H]2CC[C@@H](c4cc(F)cc(F)c4)N2C3=O)n2nccc12 [Example 14.1, 7-((5′S,7a′R)-5′-(3,5-difluorophenyl)-3′-oxotetrahydro-3′H-spiro [piperidine-4,2′-pyrrolo [2,1-b]oxazol]-1-yl)pyrazolo[1,5-a]pyridine-4-carbonitrile, TFA]",< 0.025
